Experiment [1] relates to HCV genotype 1b (Con1) replicon in HUH-7 cells. The experiment in a line: HCV replicon luciferase reporter assay, genotype 1b. Format: cell-based. The note with it: Hepatitis C virus, Huh-7, 72 h, HCV genotype 1b replicon luciferase assay, 3 days incubation, range class, read-out: LE_1b (EC50, range). The method in brief: (§1)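 Replicon inhibition for both genotypes was measured as Renilla luciferase signal (EnduRen, 7.5 μM final, 2 h) after 3-day, 37° C exposure of replicon-bearing HUH-7 cells in 4% FCS DMEM, 0.5% DMSO. The 1b construct carries S1179I; the 1a H77 construct carries P1496L and S2204I. Twenty-point, 3-fold dilutions were fitted four-parametrically for EC50, and CC50 was taken from multiplexed Cell Titer-Blue.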
On the technique in general: In antiviral work, replicon cells carry a viral genome segment that copies itself.

For experiment [2], the system named is HCV genotype 1a (H77 strain) replicon in HUH-7 cells. The experiment in a line: HCV replicon luciferase reporter assay, genotype 1a. It is filed as cell-based. The note with it: Hepatitis C virus, Huh-7, 72 h, HCV genotype 1a replicon luciferase assay, 3 days incubation, range class, read-out: LE_1a (EC50, range). An outline of the steps: as §1

Usually EC50 stands for the concentration that produces a half-maximal response. Turning to `C[C@@H]1CC/C=C\[C@@H]2C[C@@]2(C(=O)NS(=O)(=O)C2CC2)NC(=O)[C@@H]2C[C@@H](Oc3ncc(OCC(F)F)c4ccccc34)CN2C(=O)[C@@H](NC(=O)OC(C)(C)C(F)(F)F)[C@H](C)C1` [Compound 1032, 1,1,1-trifluoro-2-methylpropan-2-yl((2R,6S,7R,9R,13aS,14aR,16aS,Z)-14a-((cyclopropylsulfonyl)carbamoyl)-2-((4-(2,2-difluoroethoxyl)isoquinolin-1-yl)oxy)-7,9-dimethyl-5,16-dioxo-1,2,3,5,6,7,8,9,10,11,13a,14,14a,15,16,16a-hexadecahydrocyclopropa[e]pyrrolo[1,2-a][1,4]diazacyclopentadecin-6-yl)carbamate], the concentration for a half-maximal effect (EC50) in experiment [1] and in experiment [2] was below 5.46 nM throughout.

As for `COCCOc1cnc(O[C@@H]2C[C@H]3C(=O)N[C@]4(C(=O)NS(=O)(=O)C5CC5)C[C@H]4/C=C\CC[C@@H](C)C[C@@H](C)[C@H](NC(=O)OC(C)(C)C)C(=O)N3C2)c2ccccc12` [Compound 1033, tert-butyl ((2R,6S,7R,9R,13aS,14aR,16aS,Z)-14a-((cyclopropylsulfonyl)carbamoyl)-2-((4-(2-methoxyethoxyl)isoquinolin-1-yl)oxy)-7,9-dimethyl-5,16-dioxo-1,2,3,5,6,7,8,9,10,11,13a,14,14a,15,16,16a-hexadecahydrocyclopropa[e]pyrrolo[1,2-a][1,4]diazacyclopentadecin-6-yl)carbamate], the EC50 in experiment [1] and in experiment [2] was below 5.46 nM in each case.

With `C[C@@H]1CC/C=C\[C@@H]2C[C@@]2(C(=O)NS(=O)(=O)C2CC2)NC(=O)[C@@H]2C[C@@H](Oc3ncc(OCC(F)F)c4ccccc34)CN2C(=O)[C@@H](NC(=O)O[C@H](C)C(F)(F)F)[C@H](C)C1` [Compound 1034, (R)-1,1,1-trifluoropropan-2-yl((2R,6S,7R,9R,13aS,14aR,16aS,Z)-14a-((cyclopropylsulfonyl)carbamoyl)-2-((4-(2,2-difluoroethoxyl)isoquinolin-1-yl)oxy)-7,9-dimethyl-5,16-dioxo-1,2,3,5,6,7,8,9,10,11,13a,14,14a,15,16,16a-hexadecahydrocyclopropa[e]pyrrolo[1,2-a][1,4]diazacyclopentadecin-6-yl)carbamate], the EC50 in experiment [1] and in experiment [2] was below 5.46 nM throughout.

In the case of `C[C@H]1CC/C=C\[C@@H]2C[C@@]2(C(=O)NS(=O)(=O)C2(C)CC2)NC(=O)[C@@H]2C[C@@H](Oc3ncc(OCC(F)F)c4ccccc34)CN2C(=O)[C@@H](NC(=O)O[C@H](C)C(F)(F)F)[C@H](C)C1` [Compound 1035, (R)-1,1,1-trifluoropropan-2-yl ((2R,6S,7R,9S,13aS,14aR,16aS,Z)-2-((4-(2,2-difluoroethoxyl)isoquinolin-1-yl)oxy)-7,9-dimethyl-14a-(((1-methylcyclopropyl)sulfonyl)carbamoyl)-5,16-dioxo-1,2,3,5,6,7,8,9,10,11,13a,14,14a,15,16,16a-hexadecahydrocyclopropa[e]pyrrolo[1,2-a][1,4]diazacyclopentadecin-6-yl)carbamate], the concentration giving a half-maximal response (EC50) in experiment [1] and in experiment [2] was 4.82 to 103 nM in each case.

Consider `C[C@@H]1CC/C=C\[C@@H]2C[C@@]2(C(=O)NS(=O)(=O)C2(C)CC2)NC(=O)[C@@H]2C[C@@H](Oc3ncc(OCC(F)F)c4ccccc34)CN2C(=O)[C@@H](NC(=O)O[C@H](C)C(F)(F)F)[C@H](C)C1` [Compound 1036, (R)-1,1,1-trifluoropropan-2-yl ((2R,6S,7R,9R,13aS,14aR,16aS,Z)-2-((4-(2,2-difluoroethoxyl)isoquinolin-1-yl)oxy)-7,9-dimethyl-14a-(((1-methylcyclopropyl)sulfonyl)carbamoyl)-5,16-dioxo-1,2,3,5,6,7,8,9,10,11,13a,14,14a,15,16,16a-hexadecahydrocyclopropa[e]pyrrolo[1,2-a][1,4]diazacyclopentadecin-6-yl)carbamate], for which the EC50 in experiment [1] and in experiment [2] was below 5.46 nM in each case.

Consider `COCCOc1cnc(O[C@@H]2C[C@H]3C(=O)N[C@]4(C(=O)NS(=O)(=O)C5(C)CC5)C[C@H]4/C=C\CC[C@H](C)C[C@@H](C)[C@H](NC(=O)OC(C)(C)C(F)(F)F)C(=O)N3C2)c2ccccc12` [Compound 1037, 1,1,1-trifluoro-2-methylpropan-2-yl((2R,6S,7R,9S,13aS,14aR,16aS,Z)-2-((4-(2-methoxyethoxyl)isoquinolin-1-yl)oxy)-7,9-dimethyl-14a-(((1-methylcyclopropyl)sulfonyl)carbamoyl)-5,16-dioxo-1,2,3,5,6,7,8,9,10,11,13a,14,14a,15,16,16a-hexadecahydrocyclopropa[e]pyrrolo[1,2-a][1,4]diazacyclopentadecin-6-yl)carbamate], for which the EC50 in experiment [1] and in experiment [2] was 4.82 to 103 nM throughout.

As to `COCCOc1cnc(O[C@@H]2C[C@H]3C(=O)N[C@]4(C(=O)NS(=O)(=O)C5(C)CC5)C[C@H]4/C=C\CC[C@@H](C)C[C@@H](C)[C@H](NC(=O)OC(C)(C)C(F)(F)F)C(=O)N3C2)c2ccccc12` [Compound 1038, 1,1,1-trifluoro-2-methylpropan-2-yl((2R,6S,7R,9R,13aS,14aR,16aS,Z)-2-((4-(2-methoxyethoxyl)isoquinolin-1-yl)oxy)-7,9-dimethyl-14a-(((1-methylcyclopropyl)sulfonyl)carbamoyl)-5,16-dioxo-1,2,3,5,6,7,8,9,10,11,13a,14,14a,15,16,16a-hexadecahydrocyclopropa[e]pyrrolo[1,2-a][1,4]diazacyclopentadecin-6-yl)carbamate], the concentration giving a half-maximal response (EC50) in experiment [1] and in experiment [2] was below 5.46 nM throughout.

In the case of `COCCOc1cnc(O[C@@H]2C[C@H]3C(=O)N[C@]4(C(=O)NS(=O)(=O)C5(C)CC5)C[C@H]4/C=C\CC[C@@H](C)C[C@@H](C)[C@H](NC(=O)OC4C[C@@H]5C[C@H]5C4)C(=O)N3C2)c2ccccc12` [Compound 1039, (1S,5S)-bicyclo[3.1.0]hexan-3-yl((2R,6S,7R,9R,13aS,14aR,16aS,Z)-2-((4-(2-methoxyethoxyl)isoquinolin-1-yl)oxy)-7,9-dimethyl-14a-(((1-methylcyclopropyl)sulfonyl)carbamoyl)-5,16-dioxo-1,2,3,5,6,7,8,9,10,11,13a,14,14a,15,16,16a-hexadecahydrocyclopropa[e]pyrrolo[1,2-a][1,4]diazacyclopentadecin-6-yl)carbamate], the EC50 in experiment [1] and in experiment [2] was below 5.46 nM in each case.

As for `COCCOc1cnc(O[C@@H]2C[C@H]3C(=O)N[C@]4(C(=O)NS(=O)(=O)C5CC5)C[C@H]4/C=C\CC[C@@H](C)C[C@@H](C)[C@H](NC(=O)OC4C[C@@H]5C[C@H]5C4)C(=O)N3C2)c2ccccc12` [Compound 1040, (1S,5S)-bicyclo[3.1.0]hexan-3-yl((2R,6S,7R,9R,13aS,14aR,16aS,Z)-14a-((cyclopropylsulfonyl)carbamoyl)-2-((4-(2-methoxyethoxyl)isoquinolin-1-yl)oxy)-7,9-dimethyl-5,16-dioxo-1,2,3,5,6,7,8,9,10,11,13a,14,14a,15,16,16a-hexadecahydrocyclopropa[e]pyrrolo[1,2-a][1,4]diazacyclopentadecin-6-yl)carbamate], the EC50 in experiment [1] and in experiment [2] was below 5.46 nM each time.

With `COc1cnc(O[C@@H]2C[C@H]3C(=O)N[C@]4(C(=O)NS(=O)(=O)C5(CF)CC5)C[C@H]4/C=C\CC[C@@H](C)C[C@@H](C)[C@H](NC(=O)OC4COC4)C(=O)N3C2)c2ccccc12` [Compound 1041, oxetan-3-yl ((2R,6S,7R,9R,13aS,14aR,16aS,Z)-14a-(((1-(fluoromethyl)cyclopropyl)sulfonyl)carbamoyl)-2-((4-methoxyisoquinolin-1-yl)oxy)-7,9-dimethyl-5,16-dioxo-1,2,3,5,6,7,8,9,10,11,13a,14,14a,15,16,16a-hexadecahydrocyclopropa[e]pyrrolo[1,2-a][1,4]diazacyclopentadecin-6-yl)carbamate], the figures for the EC50 in experiment [1] and in experiment [2] were below 5.46 nM and 4.82 to 103 nM, respectively.

Turning to `COc1cnc(O[C@@H]2C[C@H]3C(=O)N[C@]4(C(=O)NS(=O)(=O)C5(CF)CC5)C[C@H]4/C=C\CC[C@@H](C)C[C@@H](C)[C@H](NC(=O)OC(C)(C)C(C)(F)F)C(=O)N3C2)c2ccccc12` [Compound 1043, 3,3-difluoro-2-methylbutan-2-yl((2R,6S,7R,9R,13aS,14aR,16aS,Z)-14a-(((1-(fluoromethyl)cyclopropyl)sulfonyl)carbamoyl)-2-((4-methoxyisoquinolin-1-yl)oxy)-7,9-dimethyl-5,16-dioxo-1,2,3,5,6,7,8,9,10,11,13a,14,14a,15,16,16a-hexadecahydrocyclopropa[e]pyrrolo[1,2-a][1,4]diazacyclopentadecin-6-yl)carbamate], the EC50 in experiment [1] and in experiment [2] was below 5.46 nM in each case.

With `CCC(C)(C)OC(=O)N[C@@H]1C(=O)N2C[C@H](Oc3ncc(OC)c4ccccc34)C[C@H]2C(=O)N[C@]2(C(=O)NS(=O)(=O)C3(CF)CC3)C[C@H]2/C=C\CC[C@@H](C)C[C@H]1C` [Compound 1044, tert-pentyl ((2R,6S,7R,9R,13aS,14aR,16aS,Z)-14a-(((1-(fluoromethyl)cyclopropyl)sulfonyl)carbamoyl)-2-((4-methoxyisoquinolin-1-yl)oxy)-7,9-dimethyl-5,16-dioxo-1,2,3,5,6,7,8,9,10,11,13a,14,14a,15,16,16a-hexadecahydrocyclopropa[e]pyrrolo[1,2-a][1,4]diazacyclopentadecin-6-yl)carbamate], the concentration for a half-maximal effect (EC50) in experiment [1] and in experiment [2] was below 5.46 nM each time.

Values taken from US9499550B2 (BRISTOL-MYERS SQUIBB COMPANY, priority 2012, dated 2016).
